Assays:
Type in all cases: in vivo
[1] = system: mouse colon cancer Colon 26 cells; experiment: Test of anticachexia effects in mice bearing mouse colon cancer Colon 26 cells; details: for Inhibition of mouse tumor cachexia and recovery of body weight loss (in words): Example 4, written in present tense, no data; for Body Weight Recovery Rate (%): day 19, (Δgt−Δgc1)/(Δgc2−Δgc1)×100; for Weight Gain (Δg): day 19 after tumor cell transplantation, female CDF1 mice 8 weeks old; for Average Weight Gain (Δg): 22 days after tumor transplantation, female CDF1 mice 16 weeks old, control −4.2
Source text: The test animals were CDF1 mice (females, 8 weeks old). They were employed in groups of 10 for each test. 1×10^6 mouse colon cancer Colon 26 cells were transplanted subcutaneously into each animal.
The test compounds were Compounds No. 1-94 and 2-78 as shown above in Tables 1 and 2, respectively, and having the following formulae: […]
Each test compound was suspended in sterilized distilled water containing 0.5% w/v carboxymethyl cellulose (CMC) and administered orally once per day starting on the day of the tumor cell transplantation.
Each test animal was weighed immediately after tumor cell transplantation, and the weight (A g) was recorded. Each animal was then weighed on day 19 after tumor cell transplantation, and the weight (B g) was recorded. The weight gain on day 19 after tumor cell transplantation was calculated as B−A=Δgt for the test animals. The experiment was repeated with two control groups: the first control group (control group 1) was transplanted with the tumor cells but were not treated with any test compound, and the weight gain is reported as Δgc1; the second control group (control group 2) were not transplanted with the tumor cells and were not treated with any test compound, and the weight gain is reported as Δgc2. The body weight recovery rate was determined according to the following formula based on the weight gain on day 19 after tumor cell transplantation, and this value was used as an indicator of the anticachexia effect. Body weight recovery rate (%)=(Δgt−Δgc1)/(Δgc2−Δgc1)×100
(§1) The procedure described in Example 1 was repeated, but using the compound of formula (III) as the test compound, and comparing the weight gain (Δgt) of the test group of animals to which the compound of formula (III) had been administered with a control group (Δgc) into which the tumor cells had been transplanted but to which no anti-tumor compound had been administered. The test animals were female CDF1 mice, 16 weeks old. Also, the weight gain was measured 22 days after tumor transplantation. The average body weight of each group of animals immediately after tumor transplantation was 25 to 26 g.
as §1, with “Example 2” for “Example 1”, “formula (IV)” for “formula (III)”, “mice, 7” for “mice, 16”, “measured 15” for “measured 22”, “was 20” for “was 25”, “to 21” for “to 26”
Test compounds [the compounds of formula (V), (VI), (VII), (VIII), (IX), (X), (XI), (XII), (XIII) and (XIV)] are administered in the same manner as described in Example 2.

[2] = system: mouse colon cancer Colon 26 cells; experiment: Life-prolonging activity test in mice bearing Colon 26 cells; details: for Life-prolongation (in words): Example 7, animals of Examples 3 and 4, present tense, no data; for Life-prolonging Index (%): (St/Sc−1)×100
Description: Observation of the mice used in Example 1 above was continued. The life-prolonging index was determined, based on the number of days each mouse survived, and this value was then used as an indicator of the life-prolonging effects of the test compounds.
It should be noted that, in the case of the group of mice treated with a test compound, oral administration of the respective compound once daily was continued on day 20 after tumor cell transplantation and beyond as well. Life-prolonging index (%)=(St/Sc−1)×100 • St: Median value of survival time (days) of the group of mice treated with a test compound • Sc: Median value of survival time (days) of the control group which were […].
The experiment reported in Example 5 was repeated with the animals used in Example 2. In the case of the group of mice treated with a test compound, oral administration of the respective compound once daily was continued on day 23 after tumor cell transplantation and beyond as well.
The experiment reported in Example 5 is repeated with the animals used in Examples 3 and 4.

[3] = system: mouse malignant melanoma B16-BL6 cells; experiment: Inhibitory effect on lung metastasis of mouse malignant melanoma B16-BL6 cells
Description: Groups of mice, each group containing ten C57BL/6 mice (female, age: 8 weeks) were transplanted intravenously into the tail vein with 3×10^4 of mouse malignant melanoma B16-BL6 cells.
The mice were, when necessary, administered intravenously into the tail vein with a bacterial lipopolysaccharide (LPS) in an amount of 3 μg each within one hour before transplantation of the melanoma cells so as to accelerate lung metastasis of the melanoma [M. J. Anasagasti et al., J. Natl. Cancer Research, 89, 645-651 (1997).]
As test compounds, Compound No. 2-118, a compound of formula (IV), a compound of formula (V) and indomethacin were employed, and each was suspended in sterilized distilled water containing 0.5% w/v of carboxymethyl cellulose (CMC), and the suspensions were orally administered at a dose of 1 mg/kg per day for five days starting from the day of the melanoma cell transplantation.
Inhibitory activities on lung metastasis of the melanoma cells were evaluated in terms of the lung metastasis inhibitory rate (LMI %) by counting the number of metastatic colonies in the lung on the 10th day after intravenous transplantation of the mouse malignant melanoma B16-BL6 cells at the tail. LMI(%)=(1−Nt/Nc)×100 • Nt: Numbers of lung metastatic colonies on the 10th day in groups administered with the test compounds; and • Nc: Numbers of lung metastatic colonies on the 10th day in control groups which were not administered with the test compounds.

[4] = 1 mg/kg oral once daily, mice of Example 1
[5] = 1 mg/kg oral once daily, mice of Example 1, untreated 29.0
[6] = 3 mg/kg oral once daily, mice of Example 1
[7] = 3 mg/kg oral once daily, mice of Example 1, untreated 29.0
[8] = 10 mg/kg oral once daily, mice of Example 1
[9] = 10 mg/kg oral once daily, mice of Example 1, untreated 29.0

With `CS(=O)(=O)c1ccc(C2=C(c3cc(F)cc(F)c3)C(=O)CC2)cc1` [(XIII), 2-(3,5-difluorophenyl)-3-(4-methanesulfonylphenyl)-2-cyclopenten-1-one] the “Inhibition of mouse tumor cachexia and recovery of body weight loss (in words)” value (“Inhibition … of body weight loss (in words)” for short) [1] was “inhibit mouse tumor cachexia and recover loss of average of body weight” and the “Life-prolongation (in words)” value [2] was “exhibit pronounced life-prolongation”.
`COc1ccc2c(c1)c(CC(=O)O)c(C)n2C(=O)c1ccc(Cl)cc1` [Indomethacin, reference compound] was tested, and the “Inhibition of lung metastasis (in words)” value ([3]; 1 mg/kg oral, lung metastasis accelerating conditions (LPS)) was “had no such inhibitory activity” and the “LMI (%) lung metastasis inhibitory rate” value ([3]; LPS 3 μg i.v. before transplantation, 1 mg/kg per day oral for five days, colonies counted on 10th day, C57BL/6 mice) was −1%.
For `CS(=O)(=O)c1ccc(C2=C(c3ccc(F)cc3)CCC2)cc1` [(XI), 1-(4-methanesulfonylphenyl)-2-(4-fluorophenyl)cyclopentene], the “Inhibition … of body weight loss (in words)” value [1] was “inhibit mouse tumor cachexia and recover loss of average of body weight” and the “Life-prolongation (in words)” value [2] was “exhibit pronounced life-prolongation”.
`CS(=O)(=O)c1ccc(C2=C(c3ccccc3)C(=O)OC2)cc1` [(XII), 3-phenyl-4-(4-methanesulfonylphenyl)-5H-furan-2-one] was tested, and the “Inhibition … of body weight loss (in words)” value [1] was “inhibit mouse tumor cachexia and recover loss of average of body weight” and the “Life-prolongation (in words)” value [2] was “exhibit pronounced life-prolongation”.
In the case of `Cc1onc(-c2ccccc2)c1-c1ccc(S(N)(=O)=O)cc1` [(XIV), 4-[5-methyl-3-phenylisoxazol-4-yl)benzenesulfonamide], the “Inhibition … of body weight loss (in words)” value [1] is reported as “inhibit mouse tumor cachexia and recover loss of average of body weight” and the “Life-prolongation (in words)” value [2] is reported as “exhibit pronounced life-prolongation”.
With `Cc1nc(C2CCCCC2)c(-c2ccc(S(N)(=O)=O)c(F)c2)o1` [(VIII), 4-(4-cyclohexyl-2-methyloxazol-5-yl)-2-fluorobenzenesulfonamide] the “Inhibition … of body weight loss (in words)” value [1] was “inhibit mouse tumor cachexia and recover loss of average of body weight” and the “Life-prolongation (in words)” value [2] was “exhibit pronounced life-prolongation”.
With `Cc1cnc(NC(=O)C2=C(O)c3ccccc3S(=O)(=O)N2C)s1` [(VI), 4-hydroxy-2-methyl-N-(5-methylthiazol-2-yl)-2H-1,2-benzothiazine-3-carboxamide-1,1-dioxide] the “Inhibition … of body weight loss (in words)” value [1] was “inhibit mouse tumor cachexia and recover loss of average of body weight” and the “Life-prolongation (in words)” value [2] was “exhibit pronounced life-prolongation”.
In the case of `CS(=O)(=O)Nc1cc2occ(NC=O)c(=O)c2cc1Oc1ccccc1` [(IX), N-(3-formylamino-4-oxo-6-phenoxy-4H-1-benzopyran-7-yl)methanesulfonamide], the “Inhibition … of body weight loss (in words)” value [1] is reported as “inhibit mouse tumor cachexia and recover loss of average of body weight” and the “Life-prolongation (in words)” value [2] is reported as “exhibit pronounced life-prolongation”.
For `CCOc1ccc(-c2cc(C)cn2-c2ccc(S(N)(=O)=O)cc2)cc1` [Compound 2-78], the “Body Weight Recovery Rate (%)” value ([1]; 1 mg/kg oral once per day) was 85%, the “Weight Gain (Δg)” value ([1]; 1 mg/kg oral once per day) was 2.5 g and the “Body Weight Recovery Rate (%)” value ([1]; 3 mg/kg oral once per day) was 85%. The “Weight Gain (Δg)” value ([1]; 3 mg/kg oral once per day) was 2.5 g, the “Body Weight Recovery Rate (%)” value ([1]; 10 mg/kg oral once per day) was 88% and the “Weight Gain (Δg)” value ([1]; 10 mg/kg oral once per day) was 2.6 g. The “Life-prolonging Index (%)” value [2, 4] was 55%, the “Survival Period (median: days)” value [2, 5] was 45.0 days and the “Life-prolonging Index (%)” value [2, 6] was 74%. For the same molecule, the “Survival Period (median: days)” value [2, 7] was 50.5 days, the “Life-prolonging Index (%)” value [2, 8] was 67% and the “Survival Period (median: days)” value [2, 9] was 48.5 days.
With `CSc1ccc(-n2cc(C)cc2-c2ccc(S(N)(=O)=O)cc2)cc1` [Compound 1-94, 4-methyl-1-(4-methylthiophenyl)-2-(4-sulfamoylphenyl)pyrrole] the “Body Weight Recovery Rate (%)” value ([1]; 1 mg/kg oral once per day) was 78%, the “Weight Gain (Δg)” value ([1]; 1 mg/kg oral once per day) was 2.2 g and the “Body Weight Recovery Rate (%)” value ([1]; 3 mg/kg oral once per day) was 89%. For the same molecule, the “Weight Gain (Δg)” value ([1]; 3 mg/kg oral once per day) was 2.7 g, the “Body Weight Recovery Rate (%)” value ([1]; 10 mg/kg oral once per day) was 98% and the “Weight Gain (Δg)” value ([1]; 10 mg/kg oral once per day) was 3.1 g. For the same molecule, the “Life-prolonging Index (%)” value [2, 4] was 67%, the “Survival Period (median: days)” value [2, 5] was 48.5 days and the “Life-prolonging Index (%)” value [2, 6] was 21%. The “Survival Period (median: days)” value [2, 7] was 35.0 days, the “Life-prolonging Index (%)” value [2, 8] was 55% and the “Survival Period (median: days)” value [2, 9] was 45.0 days.
For `CCN1CC/C(=C\c2cc(C(C)(C)C)c(O)c(C(C)(C)C)c2)S1(=O)=O` [(X), (E)-2-ethyl-5-(3,5-di-t-butyl-4-hydroxy)benzylidene-1,2-isothiazolidine-1,1-dioxide], the “Inhibition … of body weight loss (in words)” value [1] was “inhibit mouse tumor cachexia and recover loss of average of body weight” and the “Life-prolongation (in words)” value [2] was “exhibit pronounced life-prolongation”.
With `CS(=O)(=O)c1ccc(C2=C(c3ccc(F)c(F)c3)C(=O)OC2)cc1` [Compound (III), 3-(3,4-difluorophenyl)-4-(4-methanesulfonylphenyl)-5H-furan-2-one] the “Average Weight Gain (Δg)” value ([1]; 1 mg/kg oral once per day) was 0.0 g, the “Average Weight Gain (Δg)” value ([1]; 3 mg/kg oral once per day) was 0.3 g and the “Average Weight Gain (Δg)” value ([1]; 10 mg/kg oral once per day) was 0.9 g. For the same molecule, the “Inhibition of mouse tumor cachexia and weight loss (in words)” value ([1]; Examples 1-3, 1-10 mg/kg oral) was “inhibited mouse tumor cachexia and reduced weight loss”, the “Survival Period (median: days)” value ([2]; 1 mg/kg oral once daily, mice of Example 2 (16 weeks old), untreated 23.0) was 40.5 days and the “Life-prolonging Index (%)” value ([2]; 1 mg/kg oral once daily, mice of Example 2) was 76%. The “Survival Period (median: days)” value ([2]; 3 mg/kg oral once daily, mice of Example 2 (16 weeks old), untreated 23.0) was 37.5 days, the “Life-prolonging Index (%)” value ([2]; 3 mg/kg oral once daily, mice of Example 2) was 63% and the “Survival Period (median: days)” value ([2]; 10 mg/kg oral once daily, mice of Example 2 (16 weeks old), untreated 23.0) was 43.5 days. For the same molecule, the “Life-prolonging Index (%)” value ([2]; 10 mg/kg oral once daily, mice of Example 2) was 91%.
For `CS(=O)(=O)Nc1ccc([N+](=O)[O-])cc1Oc1ccccc1` [(VII), N-(4-Nitro-2-phenoxyphenyl)methanesulfonamide], the “Inhibition … of body weight loss (in words)” value [1] was “inhibit mouse tumor cachexia and recover loss of average of body weight” and the “Life-prolongation (in words)” value [2] was “exhibit pronounced life-prolongation”.

Reference: patent US7745481B2, “Methods and compositions for the treatment and prevention of tumors, tumor-related disorders and cachexia” (Daiichi Sankyo Company, Limited, priority 1997, dated 2010)
